Tests used:
[1] = biological target: T1, G12D-mutant human KRAS (amino acid residues 1-188) (Homo sapiens, UniProt P01116, G12D); assay: KRAS Binding Disruption Assay (AlphaScreen; biotinylated KRpep-2d analogue or RAF1-RBD), G12D; settings: KRAS G12D; geometric mean; read-out: KRAS GMean IC50 (uM) MUTATION: G12D
T1 construct: G12D or G12C-mutant human KRAS (amino acid residues 1-188) with FLAG tag; made in house; host or cells: E. coli
Summary of the method: (§1)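 Compounds are titrated against 5-20 nM mutant KRAS and 5-20 nM of either a biotinylated KRpep-2d analogue or RAF1-RBD, incubated 1 h at 25° C. Disruption is detected as reduced Alpha signal after 1 h with donor and acceptor beads at 10 μg/mL.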

[2] = biological target: T2, G12C-mutant human KRAS (amino acid residues 1-188) (Homo sapiens, UniProt P01116, G12C); assay: KRAS Binding Disruption Assay (AlphaScreen; biotinylated KRpep-2d analogue or RAF1-RBD), G12C; settings: geometric mean, read-out: KRAS GMean IC50 (uM) MUTATION: G12C
T2 construct: G12D or G12C-mutant human KRAS (amino acid residues 1-188) with FLAG tag; made in house; host or cells: E. coli
Summary of the method: as §1

[3] = biological target: T3, G12V-mutant human KRAS (amino acid residues 1-188) (Homo sapiens, UniProt P01116, G12V); assay: KRAS Binding Competition Assay (AlphaScreen; biotinylated KRpep-2d analogue), G12V; settings: geometric mean, read-out: KRAS GMean IC50 (uM) MUTATION: G12V
T3 construct: G12V-mutant human KRAS (amino acid residues 1-188) with FLAG tag was purified from E. coli; made in house; host or cells: E. coli

Structure (SMILES)	IC50 [1]	IC50 [2]	IC50 [3]
CN1CCC[C@H]1COc1nc(N2C[C@H]3CC[C@@H](C2)N3C(=O)Cc2cnccn2)c2ccc(-c3cc(O)cc4ccccc34)cc2n1 [P-0121, 1-((1R,5S)-3-(7-(3-hydroxynaphthalen-1-yl)-2-(((S)-1-methylpyrrolidin-2-yl)methoxy)quinazolin-4-yl)-3,8-diazabicyclo[3.2.1]octan-8-yl)-2-(pyrazin-2-yl)ethan-1-one]	0.0001 to 10 µM	10 to 100 µM	10 to 100 µM
Oc1cc(-c2ccc3c(N4C[C@H]5CC[C@@H](C4)N5)nc(OCC45CCCCN4CCC5)nc3c2)c2ccccc2c1 (stereo partly drawn) [P-0102, 4-(4-((1R,5S)-3,8-diazabicyclo[3.2.1]octan-3-yl)-2-((hexahydroindolizin-8a(1H)-yl)methoxy)quinazolin-7-yl)naphthalen-2-ol]	0.0001 to 10 µM	0.0001 to 10 µM	0.0001 to 10 µM
CN1CCC[C@H]1COc1nc(N2CC3CCC2CN3)c2cc(Cl)c(-c3cc(O)cc4ccccc34)c(F)c2n1 (stereo partly drawn) [P-0030, 4-(4-(2,5-diazabicyclo[2.2.2]octan-2-yl)-6-chloro-8-fluoro-2-(((S)-1-methylpyrrolidin-2-yl)methoxy)quinazolin-7-yl)naphthalen-2-ol]	0.0001 to 10 µM	10 to 100 µM	10 to 100 µM
Oc1cc(-c2ncc3c(N4C[C@H]5CC[C@@H](C4)N5)nc(OCC45CCCN4CCC5)nc3c2F)c2ccccc2c1 [P-0055, 4-(4-((1R,5S)-3,8-diazabicyclo[3.2.1]octan-3-yl)-8-fluoro-2-((tetrahydro-1H-pyrrolizin-7a(5H)-yl)methoxy)pyrido[4,3-d]pyrimidin-7-yl)naphthalen-2-ol]	0.0001 to 10 µM	0.0001 to 10 µM	0.0001 to 10 µM
Oc1cc(-c2ccc3c(N4C[C@H]5CC[C@@H](C4)N5)nc(OC[C@@]45CCCN4C[C@H](F)C5)nc3c2F)c2c(Cl)cccc2c1 [P-0510, 4-(4-((1R,5S)-3,8-diazabicyclo[3.2.1]octan-3-yl)-8-fluoro-2-(((2R,7aS)-2-fluorotetrahydro-1H-pyrrolizin-7a(5H)-yl)methoxy)quinazolin-7-yl)-5-chloronaphthalen-2-ol]	0.0001 to 10 µM	0.0001 to 10 µM	0.0001 to 10 µM
O=C(N[C@@H]1CCNC1)N1[C@@H]2CC[C@H]1CN(c1nc(OCC34CCCN3CCC4)nc3cc(-c4cc(O)cc5ccccc45)ccc13)C2 [P-0122, (1R,5S)-3-(7-(3-hydroxynaphthalen-1-yl)-2-((tetrahydro-1H-pyrrolizin-7a(5H)-yl)methoxy)quinazolin-4-yl)-N-((R)-pyrrolidin-3-yl)-3,8-diazabicyclo[3.2.1]octane-8-carboxamide]	0.0001 to 10 µM	0.0001 to 10 µM	0.0001 to 10 µM
NCC(=O)N1[C@@H]2CC[C@H]1CN(c1nc(OCC34CCCN3CCC4)nc3cc(-c4cc(O)cc5ccccc45)ccc13)C2 [P-0007, 2-amino-1-((1R,5S)-3-(7-(3-hydroxynaphthalen-1-yl)-2-((tetrahydro-1H-pyrrolizin-7a(5H)-yl)methoxy)quinazolin-4-yl)-3,8-diazabicyclo[3.2.1]octan-8-yl)ethan-1-one]	0.0001 to 10 µM	0.0001 to 10 µM	0.0001 to 10 µM
Cc1cccc2cccc(-c3ccc4c(N5C[C@H]6CC[C@@H](C5)N6)nc(OCC56CCCN5CCC6)nc4c3F)c12 [P-0005, 4-((1R,5S)-3,8-diazabicyclo[3.2.1]octan-3-yl)-8-fluoro-7-(8-methylnaphthalen-1-yl)-2-((tetrahydro-1H-pyrrolizin-7a(5H)-yl)methoxy)quinazoline]	0.0001 to 10 µM	0.0001 to 10 µM	10 to 100 µM
O=C(c1ccccn1)N1[C@@H]2CC[C@H]1CN(c1nc(OCC34CCCN3CCC4)nc3cc(-c4cc(O)cc5ccccc45)ccc13)C2 [P-0065, ((1R,5S)-3-(7-(3-hydroxynaphthalen-1-yl)-2-((tetrahydro-1H-pyrrolizin-7a(5H)-yl)methoxy)quinazolin-4-yl)-3,8-diazabicyclo[3.2.1]octan-8-yl)(pyridin-2-yl)methanone]	10 to 100 µM	0.0001 to 10 µM	0.0001 to 10 µM

More lines, now with the values ahead:

IC50 [1]	IC50 [2]	IC50 [3]	Structure (SMILES)
0.0001 to 10 µM	0.0001 to 10 µM	0.0001 to 10 µM	CN1CCC[C@H]1COc1nc(N2C[C@H]3CC[C@@H](C2)N3C(=O)CC2SC(=O)NC2=O)c2ccc(-c3cc(O)cc4ccccc34)c(F)c2n1 (stereo partly drawn) [P-0279, 5-(2-((1R,5S)-3-(8-fluoro-7-(3-hydroxynaphthalen-1-yl)-2-(((S)-1-methylpyrrolidin-2-yl)methoxy)quinazolin-4-yl)-3,8-diazabicyclo[3.2.1]octan-8-yl)-2-oxoethyl)thiazolidine-2,4-dione]
0.0001 to 10 µM	0.0001 to 10 µM	0.0001 to 10 µM	O=C1NC(=O)C(CC(=O)N2[C@@H]3CC[C@H]2CN(c2nc(OCC45CCCN4CCC5)nc4c(F)c(-c5cc(O)cc6ccccc56)ccc24)C3)N1 (stereo partly drawn) [P-0366]
0.0001 to 10 µM	0.0001 to 10 µM	0.0001 to 10 µM	CN1C(=O)SC(CC(=O)N2[C@@H]3CC[C@H]2CN(c2nc(OCC45CCCN4CCC5)nc4c(F)c(-c5cc(O)cc6ccccc56)ccc24)C3)C1=O (stereo partly drawn) [P-0412, 5-(2-((1R,5S)-3-(8-fluoro-7-(3-hydroxynaphthalen-1-yl)-2-((tetrahydro-1H-pyrrolizin-7a(5H)-yl)methoxy)quinazolin-4-yl)-3,8-diazabicyclo[3.2.1]octan-8-yl)-2-oxoethyl)-3-methylthiazolidine-2,4-dione]
0.0001 to 10 µM	10 to 100 µM	10 to 100 µM	Oc1cc(-c2ccc3c(C4C[C@H]5CC[C@@H](C4)N5)nc(OCC45CCCN4CCC5)nc3c2)c2ccccc2c1 (stereo partly drawn) [P-0053, 4-(4-((1R,5S)-8-azabicyclo[3.2.1]octan-3-yl)-2-((tetrahydro-1H-pyrrolizin-7a(5H)-yl)methoxy)quinazolin-7-yl)naphthalen-2-ol]
0.0001 to 10 µM	0.0001 to 10 µM	0.0001 to 10 µM	CN1CCC[C@H]1COc1nc(N2C[C@H]3CC[C@@H](C2)N3C(=O)C(N)=O)c2ccc(-c3cc(O)cc4ccccc34)c(F)c2n1 [P-0397, 2-((1R,5S)-3-(8-fluoro-7-(3-hydroxynaphthalen-1-yl)-2-(((S)-1-methylpyrrolidin-2-yl)methoxy)quinazolin-4-yl)-3,8-diazabicyclo[3.2.1]octan-8-yl)-2-oxoacetamide]
0.0001 to 10 µM	0.0001 to 10 µM	0.0001 to 10 µM	Oc1cc(-c2c(F)cc3c(N4C[C@H]5CC[C@@H](C4)N5)nc(OCC45CCCN4CCC5)nc3c2F)c2ccccc2c1 [P-0010, 4-(4-((1R,5S)-3,8-diazabicyclo[3.2.1]octan-3-yl)-6,8-difluoro-2-((tetrahydro-1H-pyrrolizin-7a(5H)-yl)methoxy)quinazolin-7-yl)naphthalen-2-ol]
0.0001 to 10 µM	0.0001 to 10 µM	0.0001 to 10 µM	Oc1cc(-c2c(F)cc3c(N4C[C@H]5CC[C@@H](C4)N5)nc(OCC45CCCN4CCC5)nc3c2F)c2c(Cl)cccc2c1 [P-0137, 4-(4-((1R,5S)-3,8-diazabicyclo[3.2.1]octan-3-yl)-6,8-difluoro-2-((tetrahydro-1H-pyrrolizin-7a(5H)-yl)methoxy)quinazolin-7-yl)-5-chloronaphthalen-2-ol]
0.0001 to 10 µM	0.0001 to 10 µM	0.0001 to 10 µM	Oc1cc(-c2ccc3c(N4C[C@H]5CC[C@@H](C4)N5)nc(OCC45CCCN4CCC5)nc3c2F)c2ccccc2c1 [P-0048, 4-(4-((1R,5S)-3,8-diazabicyclo[3.2.1]octan-3-yl)-8-fluoro-2-((tetrahydro-1H-pyrrolizin-7a(5H)-yl)methoxy)quinazolin-7-yl)naphthalen-2-ol]
